This note sets out measurements from PMC7083937, “The ribosome-associated complex RAC serves in a relay that directs nascent chains to Ssb” (Nature Communications, 2020).

Assay [1] concerns nascent Pgk1-100. Description: crosslinking to ribosome-bound nascent chain. The format is binding, Saccharomyces cerevisiae. To be noted: BS3. An excerpt:
(§1) DNA templates for transcription reactions were generated by PCR using pSPUTK-Pgk1[20] as a template. Reverse primers were designed such, that PCR products encoded different length PGK1 sequences, which all lacked a stop codon. The length of the resulting translation products, which remain ribosome-bound, is indicated in Results and Figure Legends. Transcripts were generated using SP6 polymerase (Thermo Fischer Scientific) as previously described. RNCs were generated via translation reactions primed with the stop codon-less transcripts at 20 °C in the presence of [^35S]-methionine (Hartmann-Analytic) for 80 min[20],[54]. Translation reactions were stopped by the addition of 50 µg/ml cycloheximide final concentration and subsequently RNCs were isolated via centrifugation at 400.000 g for 20 min in a TLA-100 or TLA-100.2 rotor (Beckman Coulter)[20].
(§2) Chemical crosslinking of ribosome-bound nascent chains to Ssb, Zuo1, or Ssz1 was analyzed essentially as described. In brief, resuspended RNCs were incubated in the presence of 400 µM BS^3 (bis-(sulfosuccinimidyl)-suberate, spacer length 1.14 nm, Thermo Scientific) for 20 min on ice and crosslinking was then quenched by the addition of TRIS base (tris(hydroxymethyl)aminomethane) to a final concentration of 50 mM. Crosslinked protein samples were precipitated by the addition of TCA (final concentration 5%), pellets were collected by centrifugation and were dissolved in dissociation buffer (200 mM TRIS/HCl pH 7.5, 4% SDS; 10 mM EDTA, 100 µg/ml BSA, protease inhibitor mix, 1 mM PMSF). Totals shown in Figs. 1,3 and Supplementary Fig. 1 before (total) and after BS^3 crosslinking (total + BS^3) represent 5% of the dissolved material employed for immunoprecipitation reactions. The resulting denatured protein samples were used to identify crosslink products between Ssb, Zuo1, or Ssz1 and nascent chains via affinity purification under denaturing conditions. To that end, protein A sepharose beads (GE Healthcare) were pre-coated with antibodies directed against Ssb, Zuo1, or Ssz1 and subsequently the denatured crosslinked material was allowed to bind to the beads resuspended in immunoprecipitation buffer (10 mM TRIS/HCl pH 7.5, 150 mM NaCl, 5 mM EDTA, 1% Triton X-100, protease inhibitor mix, 0.5 mM PMSF)[20]. Crosslink products bound to protein A sepharose beads were released by addition of SDS-sample buffer at 95 °C for 10 min. Samples were analyzed on Tris-Tricine gels[56] followed by autoradiography. Loading was normalized according to the signal of [^35S]-labelled nascent Pgk1 in the total prior to crosslinking. Relative crosslinking efficiencies between nascent Pgk1-100 and Zuo1 or Ssz1, respectively were determined as follows. For each biological replicate, band intensities of non-crosslinked nascent Pgk1-100 and of Pgk1-100 crosslink products (XL-Zuo1 or XL-Ssz1) was determined on a single autoradiograph for wild type RAC and the different mutant variants of RAC. The crosslinking efficiency (XL-Zuo1/Pgk1-100 or XL-Ssz1/Pgk1-100) of each sample was calculated and subsequently the ratio of XL-Zuo1/Pgk1-100 or XL-Ssz1/Pgk1-100 in the presence of wild type RAC was set to 1 in order to normalize the biological replicates (see Fig. 3c,d). The original data are provided as a Source Data file.
For complementation experiments translation reactions were performed in either ∆ssb1∆ssb2 or ∆ssb1∆ssb2∆zuo1∆ssz1 translation extract as indicated. Complementation with purified Ssb1 was performed by adding His6-tagged ScSsb1 at a final concentration of 2 µM to the translation reaction prior to the addition of mRNA. Ribosome-free cytosolic extract of various mutant yeast strains for complementation experiments as indicated in Results and Figure Legends was generated as follows. The A260 of a total cell extract prepared by the glass beads method (see above) was determined, and the total cell extract was subsequently adjusted to a final concentration of 800 mM KOAc. […]

For assay [2], the system named is ribosomes. The experiment in a line: ribosome-binding assay. Details: species or system Saccharomyces cerevisiae. The conditions noted are these: for fraction of Ssb ribosome-bound: total cell extract. On the procedure: Yeast strains were grown to early log phase on YPD, prior to harvest cycloheximide was added to a final concentration of 100 µg/ml, and subsequently cells were collected via centrifugation at 5000 g. Cell pellets were resuspended in ribosome-binding buffer (20 mM Hepes/KOH pH 7.4, 2 mM Mg(OAc)2, 120 mM KOAc, 100 µg/ml cycloheximide, 2 mM DTT, 1 mM PMSF, protease inhibitor mix) and total cell extracts were prepared by the glass beads method. After a clearing spin at 20.000 g, each 60 µl of the total glass beads extract (A260 between 80 and 100 mAU) was loaded onto a 90 µl sucrose cushion (25% sucrose, 20 mM Hepes/KOH pH 7.4, 120 mM KOAc, 2 mM Mg(OAc)2, 2 mM DTT, 1 mM PMSF, protease inhibitor mix). After centrifugation at 400.000 g at 4 °C for 25 min the cytosolic supernatant was collected and the ribosomal pellet was resuspended in 300 µl ribosome-binding buffer. Aliquots of the total cell extract, cytosolic supernatant, and resuspended ribosomal pellets were precipitated by addition of TCA (trichloroacetic acid) to a final concentration of 5%. TCA pellets were dissolved in SDS-sample buffer and were analyzed on 10% Tris-Tricine gels followed by immunoblotting.

Assay [3] has as its system nascent Pgk1-40. Description: crosslinking to ribosome-bound nascent chain. The class given is binding, Saccharomyces cerevisiae. To be noted: wild type translation extract; BS3.
Source text: as §1, §2

Assay [4] concerns nascent Pgk1-150. Description: crosslinking to ribosome-bound nascent chain. The format is binding, Saccharomyces cerevisiae. The conditions noted are these: wild type translation extract; BS3; compared with Pgk1-50.
Source text: as §1, §2

Assay [5] deals with nascent Pgk1-45. The experiment in a line: crosslinking to ribosome-bound nascent chain. The format is binding, Saccharomyces cerevisiae. To be noted: wild type translation extract; BS3.
Source text: as §1, §2

Assay [6] relates to nascent Pgk1-50. Description: crosslinking to ribosome-bound nascent chain. The format is binding, Saccharomyces cerevisiae. The conditions noted are these: wild type translation extract; BS3.
Source text: as §1, §2

Where [7] appears, read: Δssb1Δssb2 extract, purified Ssb1, 2 µM, added prior to translation.

“Ssb: ribosome-associated Hsp70 homolog of yeast, isoforms SSB1 and SSB2”: the “crosslinking of Ssb to nascent Pgk1 when RAC or Ssz1 is absent from ribosomes, reduced to” value in assay [1] (Fig. 1e set-up) was < 1/6. For the same substance, the “crosslink to nascent Pgk1-100” value in assay [1] (wild type translation extract, compared with Pgk1-50) is given as “more efficient crosslinks”. In assay [1] (setting [7]), the “crosslink of Ssb to nascent Pgk1-100 upon adding purified Ssb” value was “restored” and the “effect of added purified Ssb on crosslinking to the RAC subunits” value was “strongly reduced”. In assay [1] (Δzuo1Δssz1Δssb1Δssb2 RNCs complemented with ribosome-free extracts), the “crosslink of Ssb to nascent Pgk1-100, dependence on RAC” value is “Only in the presence of wild type RAC nascent Pgk1-100 formed an efficient crosslink to Ssb”. The “ribosome-binding of Ssb when RAC or Ssz1 is absent from ribosomes, reduced to” value in assay [2] (in vitro translation system, Zuo1ΔN49, no Ssz1, or no Ssz1 and Zuo1) is “about 1/3”. In addition, the “fraction of Ssb ribosome-bound” value in assay [2] (cells expressing RAC-∆N49) was “about 1/ 3”. Further, the “fraction of Ssb ribosome-bound” value in assay [2] (wild type, RAC-∆N8, or RAC-∆N16) is given as “About 2/3”. Also, the “crosslink to nascent Pgk1-40” value in assay [3] is given as “did not form crosslink products with Pgk1-40 or Pgk1-45”. Besides, in assay [4], the “crosslink to nascent Pgk1-150” value is listed as “more efficient crosslinks”. The “crosslink to nascent Pgk1-45” value in assay [5] is “did not form crosslink products with Pgk1-40 or Pgk1-45”. Besides, the “crosslink to nascent Pgk1-50” value in assay [6] is “weak crosslink”.
